In patent US10272061B2, “Compositions and methods for unoccluded transdermal oxybutynin therapy” (Allergan Sales, LLC, priority 2000, dated 2019):
Where two headings read alike, the source gives them in different places.

Experiments:
[1] = Single-dose pharmacokinetics after oxybutynin gel on 400 cm^2 and 800 cm^2 application areas on the thighs; type: in vivo, human; conditions: 3 g of 4.4% oxybutynin gel; for Cmax: at 48 hours
Description: A clinical study in 21 healthy volunteers, 21 to 45 years of age, evaluated the effect of application surface area on the single-dose pharmacokinetic of oxybutynin following topical oxybutynin gel administration. The study employed a two-period, open-labeled, randomized crossover design to evaluate the effect of application surface area on the single dose pharmacokinetics and safety of a topical gel formulation of oxybutynin hydrochloride.
Volunteers received topical administrations of 3 g of 4.4% oxybutynin gel at the beginning of two 72 hour treatment periods, with a minimum six day washout separating the treatment periods. Each volunteer received a dose applied to a 400 cm^2 area in one treatment period, and a dose to an 800 cm^2 area the other treatment period. The sequential order of the treatment periods was randomized. Blood samples were periodically collected throughout the study periods and plasma was harvested according to standard procedures. Plasma oxybutynin and N-desethyloxybutynin metabolite concentrations were evaluated using high performance liquid chromatography-tandem mass spectrometry method performed according to established guidelines.

[2] = Plasma concentrations after single application of 4.4% oxybutynin topical gel to the abdomen; type: in vivo, human; conditions: single 3 g of 4.4% oxybutynin gel, 400 cm^2 abdomen; for time over which mean plasma levels increased steadily to Cmax: 'during the following' hours
Description: (§1) A clinical study in 22 healthy volunteers, 19 to 45 years of age, evaluated plasma concentrations of oxybutynin and the N-desethyloxybutynin metabolite after a single topical application of oxybutynin gel. The study employed a single dose design to evaluate the pharmacokinetics and skin tolerability of a gel formulation for oxybutynin hydrochloride.
Volunteers received a single topical administration of 3 g of 4.4% oxybutynin gel to a 400 cm^2 area of unbroken skin on the abdomen. Blood samples were periodically collected throughout the study period and plasma was harvested according to standard procedures. Plasma oxybutynin and N-desethyloxybutynin metabolite concentrations were estimated using a high performance liquid chromatography-tandem mass spectrometry method performed according to established guidelines.

[3] = Plasma concentrations after single application of 13.2% oxybutynin topical gel to the abdomen; type: in vivo, human; conditions: single 1 g of 13.2% oxybutynin gel, 133 cm^2 abdomen; for time over which mean plasma levels increased steadily to Cmax: 'during the following' hours
Description: as §1
Volunteers received a single topical administration of 1 g of 13.2% oxybutynin gel to a 133 cm^2 area of unbroken skin on the abdomen. Blood samples were periodically collected throughout the study period and plasma was harvested according to standard procedures. Plasma oxybutynin and N-desethyloxybutynin metabolite concentrations were estimated using a high performance liquid chromatography-tandem mass spectrometry method performed according to established guidelines.

[4] = Single and multiple dose pharmacokinetics after oxybutynin gel administration; type: in vivo, human; conditions: for mean Cmax: 72 hour evaluation; for half-life: read-out: elimination half-life (converted)
Experimental: A clinical study in 20 healthy volunteers, 20 to 44 years of age, evaluated the single and multiple dose pharmacokinetics of oxybutynin and N-desethyloxybutynin following topical oxybutynin gel administration. The study employed a two-period multiple dose study.
In the first treatment period, volunteers received a topical administration of 3 g of 4.4% oxybutynin gel followed by a 72 hour evaluation period. The second treatment period, oxybutynin gel was administered topically to the volunteers on 7 consecutive mornings. The two treatment periods were separated by a 7-day washout period. Blood samples were periodically collected throughout the study periods and plasma was harvested according to standard procedures. Plasma oxybutynin and N-desethyloxybutynin metabolite concentrations were estimated using high performance liquid chromatography-tandem mass spectrometry method performed according to established guidelines.
After a 7-day washout following the initial gel application, subjects applied daily 3 g doses of oxybutynin gel to rotating body sites (abdomen, upper arms, thighs) for 7 consecutive days. Plasma samples were drawn each morning before the next gel application.

[5] = Plasma concentrations after single and repeated application of 4.4% oxybutynin gel to the abdomen; type: in vivo; conditions: human, topical, once daily
Description: A clinical study in 12 healthy volunteers, 19 to 41 years of age, evaluated plasma concentrations of oxybutynin and the N-desethyloxybutynin metabolite after single and repeated topical applications of oxybutynin gel. The study employed a single-period, open-label, multiple dose design to evaluate the pharmacokinetics and skin tolerability of a gel formulation for oxybutynin hydrochloride.
Volunteers received topical administrations of 3 g of 4.4% oxybutynin gel on 3 consecutive mornings. Each volunteer received the oxybutynin gel administrations on a defined area of unbroken skin on the abdomen. Blood samples were periodically collected throughout the study period and plasma was harvested according to standard procedures. Plasma oxybutynin and N-desethyloxybutynin metabolite concentrations were estimated using high performance liquid chromatography-tandem mass spectrometry method performed according to established guidelines.

[6] = 400 cm^2 application area, thighs
[7] = 800 cm^2 application area, thighs
[8] = plasma, first period: single 3 g of 4.4% oxybutynin gel
[9] = second period: 7 consecutive daily 3 g gel applications
[10] = human, topical, plasma, read-out: elimination half-life (converted)
[11] = first period: single 3 g of 4.4% oxybutynin gel
[12] = second period, after the final of 7 daily gel applications

SMILES: CCNCC#CCOC(=O)C(O)(c1ccccc1)C1CCCCC1 (stereo not shown) [N-desethyloxybutynin]
- mean plasma level at the initial peak [1, 6]: 2.21 ng/mL
- time at which measurable plasma levels were detectable [1, 6]: ≤ 2 h
- time of the initial plasma peak [1, 6]: 28 h
- plasma peak during the first 24 hours following dosing [1, 7]: 2.39 ng/mL
- Cmax ([1]; plasma N-desethyloxybutynin, 400 cm^2 application area): 2.72 ng/mL
- Cmax ([1]; plasma, 800 cm^2 application area): 3.40 ng/mL
- elimination half-life ([2]; plasma): approximately 26.81 hours
- time of second plasma peak after dosing [2]: approximately 48 hours
- mean maximum plasma concentration (Cmax) ([2]; healthy volunteers): 2.20 ng/mL
- time at which measurable plasma levels were detectable (first sampling point) ([2]; healthy volunteers): 2 h
- time over which mean plasma levels increased steadily to Cmax [2]: 28 h
- elimination half-life ([3]; plasma): 19.53 h
- mean Cmax ([3]; plasma, healthy volunteers): 1.12 ng/mL
- time of second plasma peak after dosing [3]: approximately 48 hours
- time at which measurable plasma levels were detectable (first sampling point) ([3]; healthy volunteers): 2 h
- time over which mean plasma levels increased steadily to Cmax [3]: 28 h
- mean Cmax [4, 8]: 4.50 ng/mL
- mean AUC ([4]; plasma, first period: single 3 g of 4.4% oxybutynin gel, 72 hour treatment period): 157 ng·h/mL
- mean AUC ([4]; plasma, second period, first 24 hours after the final of 7 daily 3 g gel applications): 125 ng·h/mL
- time of maximum concentration after the final gel application [4, 9]: approximately 16 hours
- mean Cmax following the final gel application ([4]; second period: 7 consecutive daily 3 g gel applications, N-desethyloxybutynin: maximum for the 0-24 hour interval): 6.44 ng/mL

SMILES: CCN(CC)CC#CCOC(=O)C(O)(c1ccccc1)C1CCCCC1 (stereo not shown) [oxybutynin]
- concentration at 24 h ([5]; plasma, 3 g of 4.4% oxybutynin gel, after the initial application of 3 g of 4.4% oxybutynin gel, read-out: plasma concentration at the 24 hour post-dose timepoint, mean±SD): 4.02 ± 2.19 ng/mL
- concentration at 24 h ([5]; plasma, 3 g of 4.4% oxybutynin gel, after the second daily application of 3 g of 4.4% oxybutynin gel, read-out: plasma concentration 24 hours after application, mean±SD): 4.47 ± 2.38 ng/mL
- concentration at 24 h ([5]; plasma, 3 g of 4.4% oxybutynin gel, after the third daily application of 3 g of 4.4% oxybutynin gel, read-out: plasma concentration at the 24 hour post-dose timepoint, mean±SD): 5.86 ± 3.17 ng/mL
- half-life ([5]; 3 g of 4.4% oxybutynin gel, plasma elimination after the third application of 4.4% oxybutynin gel, read-out: apparent half-life (converted)): ~18 h
- Cmax ([5]; plasma, following the third application of 3 g of 4.4% oxybutynin gel, read-out: Cmax, mean±SD): 6.05 ± 3.21 ng/mL
- time at which measurable plasma levels were detectable [1, 6]: 2 h
- time of the initial plasma peak [1, 6]: 24 h
- plasma peak during the first 24 hours following dosing [1, 7]: 2.92 ng/mL
- concentration at 24 hours ([1]; human, plasma, topical, 400 cm^2 application area, thighs, read-out: mean plasma level at the initial peak): 2.25 ng/mL
- Cmax ([1]; human, topical, plasma, 800 cm^2 application area, read-out: Cmax): 3.8 ng/mL
- Cmax ([2]; human, plasma, topical, healthy volunteers, read-out: mean maximum plasma concentration (Cmax)): 2.17 ng/mL
- half-life [2, 10]: ~18.4 h
- time of second plasma peak after dosing [2]: approximately 48 hours
- time at which measurable plasma levels were detectable (first sampling point) ([2]; healthy volunteers): 2 h
- time over which mean plasma levels increased steadily to Cmax [2]: 24 h
- Cmax ([3]; human, topical, plasma, healthy volunteers): 1.17 ng/mL
- half-life [3, 10]: 17.7 h
- time of second plasma peak after dosing [3]: approximately 48 hours
- time at which measurable plasma levels were detectable (first sampling point) ([3]; healthy volunteers): 2 h
- time over which mean plasma levels increased steadily to Cmax [3]: 26 h
- average plasma concentration during the 20 hours following the application ([4]; after the final of 7 daily 3 g gel applications): 6.22 ng/mL
- mean oxybutynin AUC higher than mean N-desethyloxybutynin AUC [4, 11]: ~41%
- mean oxybutynin Cmax higher than mean N-desethyloxybutynin Cmax [4, 11]: approximately 18%
- time within which measurable plasma levels were detectable [4, 11]: two
- Cmax ([4]; human, plasma, topical, 3 g of oxybutynin gel, once daily, second period: 7 consecutive daily 3 g gel applications, N-desethyloxybutynin: maximum for the 0-24 hour interval, read-out: mean Cmax following the final gel application): 9.01 ng/mL
- concentration at 0 h ([4]; human, plasma, topical, 3 g of oxybutynin gel, once daily, second period: 7 consecutive daily 3 g gel applications, read-out: mean plasma concentration at Time 0 of the final gel application): 4.63 ng/mL
- half-life ([4]; human, topical, 3 g of oxybutynin gel, once daily, plasma, after the final of 7 daily 3 g gel applications): ~24 h
- AUC ([4]; human, topical, 3 g of oxybutynin gel, once daily, plasma, second period, first 24 hours after the final of 7 daily 3 g gel applications): 149 ng·h/mL
- AUC ([4]; human, topical, plasma, first period: single 3 g of 4.4% oxybutynin gel, 72 hour treatment period): 186 ng·h/mL
- half-life ([4]; human, topical, plasma, first period: single 3 g of 4.4% oxybutynin gel): ~18 h
- mean Cmax [4, 8]: 6.35 ng/mL
- mean oxybutynin AUC higher than mean N-desethyloxybutynin AUC [4, 12]: ~19%
- mean oxybutynin Cmax higher than mean N-desethyloxybutynin Cmax [4, 12]: approximately 40%
- time of maximum concentration after the final gel application [4, 9]: approximately 23 hours
